Measurements: US6479673B1, “Antiretroviral enantiomeric nucleotide analogs” (Institute of Organic Chemistry and Biochemistry of the …, priority 1992, dated 2002)
≈ marks a conversion by molar mass, not a printed value.

Assays:
C3H/3T3 cells = assay: Microscopic alteration of C3H/3T3 cell culture morphology; type: cell-based, murine; conditions: concentration that results in a microscopic alteration of C3H/3T3 cell culture morphology
HIV-2 = HIV-2 induced cytopathicity in MT-4 cells; type: cell-based, human immunodeficiency virus type 2; conditions: MT-4 cells; concentration inhibiting HIV-induced cytopathicity by 50%
Description: (§1) The activity of the compounds against HIV-1 and HIV-2 induced cytopathicity was examined in human lymphocyte MT-4 cells. […] The infected cell cultures were then incubated at 37° C. for 5 days in a humidified CO2-controlled incubator. Then, the cytopathicity of the virus was examined by determination of MT-4 cell viability by trypan blue dye staining.

[1] = tested on: Moloney murine sarcoma virus (MSV); assay: MSV-induced transformation of C3H/3T3 cells; type: cell-based; conditions: concentration inhibiting MSV-induced cell transformation by 50%
Description: The cells were seeded in 1-ml-wells of a 48-well microtiter plate and exposed to 80 PFU (plaque forming units) for 60-90 minutes. Then, the virus was removed and culture medium containing appropriate concentrations of the test compounds were added (1 ml per well). At day 6 post infection, MSV-induced transformation of the cell culture was examined microscopically.

MT-4 cells = assay: MT-4 cell viability (cytotoxicity); type: cell-based, human; conditions: concentration reducing MT-4 cell viability by 50%
Description: The activity of the compounds against HIV-1 and HIV-2 induced cytopathicity was examined in human lymphocyte MT-4 cells. […]. The infected cell cultures were then incubated at 37° C. for 5 days in a humidified CO2-controlled incubator. Then, the cytopathicity of the virus was examined by determination of MT-4 cell viability by trypan blue dye staining. The results are summarized in Table 1 in comparison with the data on the prototype compounds.

HIV-1 = HIV-1 induced cytopathicity in MT-4 cells; type: cell-based, human immunodeficiency virus type 1; conditions: MT-4 cells; concentration inhibiting HIV-induced cytopathicity by 50%
Description: as §1

[2] = tested on: Moloney murine sarcoma virus (MSV); assay: MSV infection in newborn NMRI mice, intraperitoneal administration; type: in vivo; conditions: for Mean day of tumor initiation: NMRI mice
Description: Two gram newborn NMRI mice were injected intramuscularly in the left hind leg with 50 μl of 250-fold diluted stock preparation of Moloney murine sarcoma virus. […] Another group of mice (20 animals) was administered RPMI-1640 medium as placebo. All compounds were solubilized in RPMI-1640 medium. The mice were observed daily for 20 days and the day of tumor initiation and the day of animal death was recorded for each animal. Statistical analyses were performed by calculating the standard deviation.

herpes viruses = conditions: racemic mixtures, prior art; cited from earlier work

Structure (SMILES): C[C@@H](Cn1cnc2c(=O)[nH]c(N)nc21)OCP(=O)(O)O [(S)-PMPG, 9-(S)-(2-Phosphonomethoxypropyl)guanine]
- MIC (C3H/3T3 cells): 8 µg/mL (≈ 26.4 µM)
- EC50 HIV-2 (HIV-2): 1.3 µg/mL (≈ 4.29 µM)
- EC50 MSV [1]: 0.95 µg/mL (≈ 3.13 µM)
- CC50 (MT-4 cells): 45 µg/mL (≈ 148 µM)
- EC50 HIV-1 (HIV-1): 1.2 µg/mL (≈ 3.96 µM)

Structure (SMILES): Nc1ncnc2c1ncn2C[C@@H](CF)OCP(=O)(O)O [(S)-FPMPA]
- MIC (C3H/3T3 cells): >100 µg/mL
- EC50 HIV-2 (HIV-2): 2.6 µg/mL (≈ 8.52 µM)
- EC50 MSV [1]: 1.5 µg/mL (≈ 4.91 µM)
- percentage of MSV-infected mice still alive at day 20 post infection ([2]; 10 mg/kg single dose i.p.): (40%)
- Mean day of tumor initiation ([2]; 10 mg/kg single dose i.p.): 7.7 ± 2.4 days
- percentage of MSV-infected mice still alive at day 20 post infection ([2]; 20 mg/kg single dose i.p.): (55%)
- percentage of MSV-infected mice without tumor at day 20 post infection ([2]; 20 mg/kg single dose i.p.): (31%)
- Mean day of tumor initiation ([2]; 20 mg/kg single dose i.p.): 11 ± 2.7 days
- percentage of MSV-infected mice still alive at day 20 post infection ([2]; 50 mg/kg single dose i.p.): (100%)
- percentage of MSV-infected mice without tumor at day 20 post infection ([2]; 50 mg/kg single dose i.p.): (100%)
- Mean day of tumor initiation ([2]; 50 mg/kg single dose i.p.): >20 days
- antiretroviral activity in vivo (in words) ([2]; dose of 50 mg/kg i.p.): no marked antiretroviral activity in vivo
- CC50 (MT-4 cells): >100 µg/mL
- EC50 HIV-1 (HIV-1): 2.7 µg/mL (≈ 8.85 µM)

Structure (SMILES): Nc1nc(N)c2ncn(C[C@@H](CF)OCP(=O)(O)O)c2n1 [(S)-FPMPDAP]
- MIC (C3H/3T3 cells): >100 µg/mL
- EC50 HIV-2 (HIV-2): 3.3 µg/mL (≈ 10.3 µM)
- EC50 MSV [1]: 1.7 µg/mL (≈ 5.31 µM)
- percentage of MSV-infected mice still alive at day 20 post infection ([2]; 10 mg/kg single dose i.p.): (33%)
- Mean day of tumor initiation ([2]; 10 mg/kg single dose i.p.): 8.5 ± 2.6 days
- Mean day of tumor initiation ([2]; 25 mg/kg single dose i.p.): 8.3 ± 1.8 days
- percentage of MSV-infected mice still alive at day 20 post infection ([2]; 50 mg/kg single dose i.p.): (67%)
- percentage of MSV-infected mice without tumor at day 20 post infection ([2]; 50 mg/kg single dose i.p.): (17%)
- Mean day of tumor initiation ([2]; 50 mg/kg single dose i.p.): 11.0 ± 2.1 days
- CC50 (MT-4 cells): >100 µg/mL
- EC50 HIV-1 (HIV-1): 4.8 µg/mL (≈ 15 µM)

Structure (SMILES): C[C@H](Cn1cnc2c(=O)[nH]c(N)nc21)OCP(=O)(O)O [(R)-PMPG, 9-(R)-(2-Phosphonomethoxypropyl)guanine]
- MIC (C3H/3T3 cells): 40 µg/mL (≈ 132 µM)
- EC50 HIV-2 (HIV-2): 1.7 µg/mL (≈ 5.61 µM)
- EC50 MSV [1]: 0.15 µg/mL (≈ 0.495 µM)
- CC50 (MT-4 cells): >100 µg/mL
- EC50 HIV-1 (HIV-1): 1.8 µg/mL (≈ 5.94 µM)

Structure (SMILES): C[C@H](Cn1cnc2c(N)ncnc21)OCP(=O)(O)O [PMPA]
- antiherpetic effect (in words) (herpes viruses): devoid of any appreciable antiherpetic effect

Structure (SMILES): Nc1ncnc2c1ncn2C[C@H](CF)OCP(=O)(O)O [(R)-FPMPA, reference compound]
- MIC (C3H/3T3 cells): >100 µg/mL
- EC50 HIV-2 (HIV-2): 54 µg/mL (≈ 177 µM)
- EC50 MSV [1]: >100 µg/mL
- Mean day of tumor initiation ([2]; 20 mg/kg single dose i.p.): 4.3 ± 0.48 days
- Mean day of tumor initiation ([2]; 50 mg/kg single dose i.p.): 4.7 ± 0.67 days
- CC50 (MT-4 cells): >100 µg/mL
- EC50 HIV-1 (HIV-1): 83 µg/mL (≈ 272 µM)
